Laboratory results taken from patent publication US4287206A, “Halogen derivatives of 8-hydroxycarboxylic acids; the processes for their preparation and medicaments in which they are present” (priority 1978, dated 1981).

What was measured:
Type in all cases: in vivo
[1] = system: mice; assay: Motor activity in mice (activity meters with photoelectric cells); conditions: comparison of isomers; 32 mg/kg administered orally; schematic grades; listed as α diastereoisomer, 32 mg/kg
Procedure: The motor activity was determined with the aid of activity meters having photoelectric cells (Boissier and Simon, Arch. int. Pharmacodyn. 1965, 158, 212-221). A minimum of 10 animals was always used per batch.
The mice are placed in the activity meter just after the oral or intraperitoneal administration of the product acccording to the invention, obtained in accordance with Example I. The motor activity is measured as from the introduction into the activity meter up to the 60th minute. The counters are read after 30 minutes, then reset to 0 and read every 10 minutes for 30 minutes.

[2] = system: rats; assay: Study of the stereotypies in rats; conditions: comparison of isomers, 32 mg/kg administered orally, schematic grades, 32 mg/kg
Procedure: Study of the stereotypies in rats
(§1) The tests were carried out on batches of 6 rats for each dose; immediately after the oral or intraperitoneal administration, the animals are placed in individual, transparent plastic 20×10×10 cm boxes provided with a pierced stainless steel lid. The stereotyped movements are rated from 0 to 3, in accordance with the method described by Simon and Chermat (J. Pharmacol. (Paris), 1972, 3, 235-238) every 10 minutes until they disappear in all the animals. The detailed curves are plotted and the surface area of the curve is calculated as described in the above reference.

[3] = system: mice; assay: Anti-reserpine activity in mice (reserpine hypothermia); conditions: comparison of isomers; 32 mg/kg administered orally; schematic grades; listed as α diastereoisomer, 32 mg/kg
Procedure: Anti-reserpine activity in mice
At time 0, the mice receive reserpine (2.5 mg.kg^-1) by intraperitoneal administration.
After 4 hours, when the hypothermia is significant (30 to 31°C.), the substance to be studied is administered intraperitoneally or orally. The rectal temperature is measured, using a probe, carrying a thermoelectric couple, inserted to a constant depth, every 30 minutes for 2 hours.

[4] = system: mice; assay: Anti-apomorphine activity in mice (hypothermia caused by apomorphine); conditions: comparison of isomers; 32 mg/kg administered orally; schematic grades; listed as α diastereoisomer, 32 mg/kg
[5] = system: rats; assay: Influence of pimozide on the stereotypies caused in rats; conditions: 8 mg.kg^-1 intraperitoneal
Procedure: as §1
Research into the antagonistic effects of the stereotypies caused in rats by the medicament according to the invention
(a) Influence of pimozide
At time 0, pimozide (1 mg.kg^-1) or distilled water is administered intraperitoneally; after 30 minutes, all the animals receive, by intraperitoneal administration, the medicament according to the invention, obtained in accordance with Example III (8 mg.kg^-1). The stereotypies are assessed as described above. The surface area of the curve of the stereotypies is calculated.

[6] = system: rats; assay: Influence of alpha-methyltyrosine on the stereotypies caused in rats
Procedure: as §1
(b) Influence of alpha-methyltyrosine
At time 0, the animals receive, by intraperitoneal administration, either distilled water or alphamethyltyrosine at a dose of 64 mg.kg^-1; after 150 minutes, they receive, by intraperitoneal administration, the medicament according to the invention, obtained in accordance with Example III, at a dose of 8 mg.kg^-1.
The animals are observed under the conditions described above in the study of the stereotypies in rats.

Row | Structure (SMILES) | Increase in the motor activity in mice [1] | Stereotypy-forming action on rats ([2]; listed as 100% of α) | Stereotypy-forming action on rats ([2]; listed as α diastereoisomer) | Anti-reserpine action [3] | Anti-apomorphine action [4] | surface area of the curve of the stereotypies, medicament by itself [5] | surface area of the curve of the stereotypies, medicament administered after pimozide ([5]; 30 min after pimozide 1 mg.kg^-1 intraperitoneal) | surface area of the curve of the stereotypies, medicament by itself ([6]; 8 mg.kg^-1 intraperitoneal) | surface area of the curve of the stereotypies, medicament + alpha-methyltyrosine ([6]; 8 mg.kg^-1 intraperitoneal, 150 min after alpha-methyltyrosine 64 mg.kg^-1 intraperitoneal) | effect of pre-treatment with alpha-methyltyrosine on the stereotypies caused by the medicament ([6]; alpha-methyltyrosine 64 mg.kg^-1 i.p. 150 min before Example III 8 mg.kg^-1 i.p.)
1 | CC1CC(c2ccc(Cl)cc2)C(c2ccccc2)C(=O)O1 (stereo not drawn) [Example III, Trans-4-(4'-chlorophenyl)-6-methyl-3-phenyl-3,4,5,6-tetrahydropyrone-2, IIIα] | less significant | 0 | virtually disappears | less significant | persists | 63 | 17 | 63 | 60.8 | 
2 | C[C@](N)(Cc1ccc(O)cc1)C(=O)O [alpha-methyltyrosine, reference compound] |  |  |  |  |  |  |  |  |  | virtually unmodified
